Assay: xn = mol fraction of the nth substance listed

CS(=O)(=O)[O-].C[N+](C)(CCO)CCO + O
101 kPa
Conditions | viscosity [mPa·s]
298.15 K, x1 = 0.1991 | 14.87
303.15 K, x1 = 0.2989 | 29.9
303.15 K, x1 = 0.6984 | 333
313.15 K, x1 = 0.4797 | 62.4
313.15 K, x1 = 0.6984 | 186
318.15 K, x1 = 0.2989 | 17.3
318.15 K, x1 = 0.4797 | 50.1
318.15 K, x1 = 1 | 378
323.15 K, x1 = 0.1991 | 6.85
323.15 K, x1 = 0.4797 | 40.9
323.15 K, x1 = 0.6984 | 112.1
323.15 K, x1 = 1 | 282

CCCCCO + CCCC[n+]1ccn(C)c1.N#C[S-]
Conditions | viscosity [mPa·s]
298.15 K, 101 kPa, x1 = 1 | 3.37

C=C[n+]1ccn(CCCC)c1.NCCCC[C@H](N)C(=O)[O-] + O
101.3 kPa
Conditions | electrical conductivity [S/m] | viscosity [mPa·s]
293.15 K, x1 = 0.3 | – | 8.51
293.15 K, x1 = 0.5 | – | 90.4
293.15 K, x1 = 0.9 | – | 1909
293.15 K, x1 = 1 | – | 10700
303.15 K, x1 = 0.5 | 2.81 | 69.3
303.15 K, x1 = 0.9 | 1.13 | 1664
303.15 K, x1 = 1 | 0.133 | 6900
308.15 K, x1 = 0.1 | 2.16 | –
313.15 K, x1 = 0.3 | 2.99 | 4.43
313.15 K, x1 = 0.5 | 3.31 | 51.34
323.15 K, x1 = 0.5 | 3.88 | 40.64
333.15 K, x1 = 0.9 | – | 750
343.15 K, x1 = 0.5 | – | 36.74
343.15 K, x1 = 0.9 | – | 223
353.15 K, x1 = 0.1 | – | 1.39
353.15 K, x1 = 0.3 | – | 2.03

CCCC[n+]1ccn(C)c1.CS(=O)(=O)[O-] + CCCC[n+]1ccn(C)c1.[Cl-]
Conditions | viscosity [mPa·s]
353.15 K, 102 kPa, x1 = 0.2 | 98
